Experimental data taken from a melting point compilation (Tetko et al.; mined from patent text by program, amines drawn as free bases though some values may be those of a salt).
Residues, ends and D or L forms follow the SMILES beside them. *: point of attachment. Cbz = O=C(OCc1ccccc1)*

Structure (SMILES)	melting point [°C]
CC(=O)c1ccc(S)cc1	71
O=c1cnc2cc(Cl)cc(Cl)c2[nH]1	228 to 229
CCC(CC)c1nn(-c2ccc(Br)cn2)cc1CCCOc1c(CC(=O)O)cccc1OC	94 to 95
Oc1ccc(CC2CO2)cc1 (racemic)	54 to 57
COc1ccc(C#N)c(C(=O)Cl)c1	192 to 194
COC(=O)C(Cc1ccc(OCc2nc3ccc(OC)cc3n2C)cc1)NS(C)(=O)=O (stereo not given)	168 to 171
CC(C)(C)c1ccc(O)c(C=NO)c1	116 to 118
COC(=O)C(C)[C@H]1CC[C@H]2[C@@H]3CCC4=CC(=O)CC[C@]4(C)[C@H]3CC[C@]12C (stereo not given in full)	175 to 177
COc1c(CC#N)c2c(c3c1OC(C)(C)C3)C(c1cccc(C(=O)NC3CCCCNC3=O)c1)=NC(C)(C)C2 (stereo not given)	130 to 132
COc1cc2nc(-c3ccc(Cl)cc3)nc(Cl)c2cc1OC	204 to 206
CCCCCCOc1c(C=O)ccc2c1C=CC(C=O)(OCCCCCC)C2 (stereo not given)	50 to 52
CCOC(=O)c1ccc2c(SC(=O)N(C)C)cccn2c1=O	119 to 121
COc1cccc2nc(-c3ccc4c(c3)NC(=O)C4(C)C)[nH]c12	222 to 225
O=C(O)COCC(Cc1ccccc1)NC(=O)OCc1ccccc1 (stereo not given)	96 to 100
CCCCN(N=Nc1[nH]cnc1C(N)=O)C(C)=N	191
N#Cc1nsc2ccc([N+](=O)[O-])cc12	168 to 170
CCOc1ncc(SC)cc1C(=O)O	78 to 92
COc1ccc(N=Nc2ccc(O)c(C(=O)Nc3ccc(OC)c(-c4n[nH]c5cc(C)nn45)c3)c2)cc1	295 to 296
C=C1CCC2C3CCC4=CC(=O)C=CC4(C)C3CCC12C (stereo not given)	155 to 157
Cc1c[nH]c2ccc(C#N)cc12	110 to 112

Structure (SMILES)	melting point [°C]
O=C1CCCCc2cc(OCC3CCCCC3)ccc21	86 to 88
Cc1cc([N+](=O)[O-])c2[nH]cc(CO)c(=O)c2c1	> 240
CCOc1nc(N2CCN(C(=O)CCC(=O)O)CC2)nc(N2CCS(=O)CC2)c1[N+](=O)[O-]	198 to 200
CC1(C)Oc2c(cc(Cl)c3oc(C(=O)O)cc(=O)c23)-c2ccc([N+](=O)[O-])cc21	278 to 279
Nc1ncc(Cc2ccc3c(c2)CCCN3)c(N)n1	284 to 287
COC(=O)CCCCCCNC(=O)C(CO)NS(=O)(=O)c1ccc(Cl)cc1 (racemic)	78 to 81
CCCc1c2c(c([N+](=O)[O-])c3c(=O)cc(C(=O)O)oc13)CCCC2	265 to 267
COC(=O)N[C@H]1Cc2ccc(N)cc2C1	140 to 142
Cc1cccc(NC(=O)NCC(=O)N(CC(=O)OCC(F)(F)F)c2ccccc2)c1	172
C=CCSc1ccc(Oc2cccc(C)c2)nn1	48 to 50
CCCS(=O)(=O)c1ccccc1S(=O)(=O)NC(=O)Nc1nc(Cl)cc(OC)n1	193 to 195
CCOC(=O)CNC(=S)Cc1cnc(C)c2c1COC(C)(C)O2	156 to 158
CS(=O)c1nc(-c2ccc([N+](=O)[O-])cc2)c[nH]1 (stereo not given)	220 to 222
N#Cc1ccc2c(c1)C(c1ccccc1F)=NCC(OP(=O)(N1CCOCC1)N1CCOCC1)=N2	194 to 197
C#Cc1ccc(Nc2c(C(=O)NOCCO)ccc(F)c2F)c(F)c1	162
CC(C)(NS(=O)(=O)c1ccc(Oc2ccc(F)cc2)cc1)C(=O)NO	133 to 134
CCCCCc1ccc(CC(=O)c2ccc(OC)cc2)cc1	62
COC(=O)c1cc2c3cc([N+](=O)[O-])ccc3n(C)c2s1	269 to 271
CCOC(=O)NC(=O)C(C#N)=CNc1ccc(Cl)cc1	177 to 183
CC(C)C(NC(=O)OC(C)(C)C)C(=O)NC(C(=O)OC1CC(n2cc(C=CBr)c(=O)[nH]c2=O)OC1CN=[N+]=[N-])C(C)C (stereo not given)	133 to 135

Structure (SMILES)	melting point [°C]
COC(=O)C(Cc1ccccc1)NC(=O)C(CC(N)=O)NC(=O)OCc1ccccc1 (stereo not drawn) (Cbz-Asn-Phe-OMe; configuration not given here)	196 to 197
COc1cccc2c1Cc1c(OC)cccc1C2(CCO)CCO	193 to 196
CC(=O)Nc1nc(C)c(S(=O)(=O)NN2CCN(C)CC2)s1	245
CC(=O)c1cc(NC(=O)CCCC(=O)Nc2cc(C(C)=O)cc(C(C)=O)c2)cc(C(C)=O)c1	200 to 203
CC1(C)C2CC3=C(CCC(=O)O3)C1C2 (stereo not given)	60
Oc1ccccc1NC(=S)NCc1ccncc1	180
O=C(O)[C@H]1O[C@@H]1C1CCCCC1	64 to 65
CC(C)CC(OC(=O)c1ccncc1)C(=O)OCc1ccccc1 (racemic)	49 to 50
COC(=O)c1ccc2c(Cl)c(C(=O)Cl)sc2c1	259 to 260
COP(=O)(CN[C@@H](Cc1ccc(-c2ccccc2)cc1)C(=O)NCCC(=O)O)OC	122 to 123
Cc1ccc(C2NC(C(=O)O)C(C)(C)S2)cc1 (stereo not given)	89 to 90
C[C@H]1CN(c2c(F)cc3c(=O)c(C(=O)O)cn4c3c2CCN4C)C[C@H]1NC(=O)CNC(=O)OC(C)(C)C (relative stereo)	142 to 145
COc1ccc(S(=O)(=O)CNC=O)cc1	105 to 107
COc1c(N2CCC(O)C(CC(C)C)C2)c(F)cc2c(=O)c(C(=O)O)cn(C3CC3)c12 (stereo not given)	190 to 192
O=C(O)CCCCCCCCCCCOC(=O)OCC(Cl)(Cl)Cl	44.6 to 46.4
COc1nc(Cl)nc(Nc2ccc(OC(=O)C(C)(C)Br)cc2)n1	107 to 108
O=C(O)c1ccc(OCCCO/N=C/c2cc(C(F)(F)F)cc(C(F)(F)F)c2)cc1O	182 to 183
CCCn1c(OCC2CC2(Cl)Cl)nc2sc(Cl)cc2c1=O (stereo not given)	94 to 96

Now from value to compound:

melting point [°C]	Structure (SMILES)
192 to 197	Cc1ccc(Nc2c([N+](=O)[O-])ccc(Cl)c2C(=O)O)cc1
> 300	CC1CCc2ccc(C#N)c3c(=O)c(C(=O)O)cn1c23 (stereo not given)
185 to 189	CCOC(=O)C=Cc1cc(=O)c(C(=O)O)cn1-c1ccc(O)cc1C
289 to 291	COc1cccc2sc(-c3ccc(C(=O)O)cc3)nc12
35 to 38	Cc1c(C(=O)N(C)Cc2ccc3c(Br)c(OCC#N)ccc3c2)oc2ccccc12
103 to 105	CCOC(=O)C1COc2cc(-c3ccccc3)ccc2O1 (stereo not given)
74 to 77	O=C1c2cccc(NCCO)c2OC12CC2
155 to 157	O=C1OCCC1C1CCc2c1[nH]c1ccccc21 (stereo not given)
56	S=C(Oc1ccccc1)c1ccccc1
201 to 203	Cc1cccc2c(N3CCS(=O)CC3)nc(N3CCNCC3)cc12
158 to 159	CCOc1cn(C)cc(-c2ccc(Cl)c(C(F)(F)F)c2)c1=O
203 to 207	Cc1nc(-c2cccc(-c3nc4sccn4c3-c3ccnc(N[C@@H]4CCCNC4)n3)c2)no1
271	Cc1cc(-c2cnn3c(C(F)(F)F)cc(-c4ccc(F)c(Cl)c4)nc23)cc(C)n1
45 to 48	CCOC(=O)N(c1cccc(C(F)(F)F)c1)c1ccccc1[N+](=O)[O-]
67 to 68	CCCNc1ncnc2c1ncn2CCCN1CCN(c2ccccc2)CC1
155 to 157	COc1ccc2c(c1)C(Cc1ccnc(F)c1)(Cc1ccnc(F)c1)c1ccccc1C2=O
140 to 143	CCCN1NC(c2ccc(C)cc2)C2=C1C(=Cc1ccc(C)cc1)CSC2 (stereo not given)
224 to 226	COc1ncccc1Nc1c(NC(NC(=O)c2cccc(C)c2)C(C)(C)C)c(=O)c1=O (stereo not given)
98.2	CNc1cccc2c1OC1(CC1)C2=O
161	CC(C)c1cccc(C(C)C)c1NC(=O)CNC(c1ccccc1)c1ccc(F)cc1 (stereo not given)
201 to 206	O=C1NCCN1N=Cc1ccccc1

melting point [°C]	Structure (SMILES)
84 to 86	Clc1ccccc1-c1n[nH]c(SCc2ccccc2)n1
278 to 280	Cc1[nH]c(C#N)c(C)c1-c1nc2ccc(Oc3ccccc3)cc2[nH]1
70 to 72	CC(C)c1ccc([N+](=O)[O-])c(C(C)C)c1NC(=O)CN1CCN(CCSc2nc3cccc([N+](=O)[O-])c3o2)CC1
122 to 123	O=C(NCC1CCN(C(=O)OCc2ccccc2)CC1)c1ccc(O)cc1
213 to 217	Cc1ccc(-c2ccc(S(=O)(=O)N3CCN(C(=O)C4CCN(c5ccncc5)CC4)CC3)cc2)cc1
210 to 212	Cc1nc(-c2ccc(C(=O)N(C)c3ccc(Cl)cc3)cc2)sc1C(=O)O
140 to 141	COC(=O)c1ccc(NC(=O)CCc2c(C)noc2-c2ccccc2)cc1
144 to 146	CC(Nc1nnc(-c2ccsc2)c2ccccc12)c1ccccc1 (stereo not given)
70	O=C(O)c1ccc(OCCNC(=O)C2Cc3ccccc3N2S(=O)(=O)c2ccc(-c3ccc(F)cc3OC(F)F)cc2)cc1 (stereo not given)
> 300	Cc1nn(-c2ccccn2)c2ncc(C(=O)NC3CCCCC3)c(O)c12
130 to 132	O=C1C(=CN2CCOCC2)c2ccccc2N1c1cccc(Cl)c1
149 to 156	COc1ccc(C2(C)Cc3cc(O)c(Cl)c(Cl)c3C2=O)cc1 (stereo not given)
164 to 165	CCOC(=O)c1c(C(=O)Nc2ccc(Cl)cc2C)cccc1[N+](=O)[O-]
218 to 219	COc1ccccc1N1CCN(CCCNC(=O)c2cc(N)cc3c(=O)c(C)c(-c4ccccc4)oc23)CC1
78 to 79	Fc1ccc(C(OCCCN2CCN(C(c3ccccc3)c3ccccc3)CC2)c2ccc(F)cc2)cc1
101	O=C(Cl)c1cn(CCCCl)c(=O)c2ccccc12
202 to 205	Cc1ccc(Sc2cncc3sc(C(=O)NC=NN)cc23)cc1
155 to 156	O=C(NCc1ccccn1)Nc1cc(N2CC(COc3ccccc3)OC2=O)ccn1 (stereo not given)
172 to 175	COc1ccccc1-c1cc(N)c(S(N)(=O)=O)cc1C
145	Cc1cn(-c2cccc(C(=O)CC(=O)Nc3cc(-c4ccccc4F)ccc3NC(=O)OC(C)(C)C)c2)c(C)n1
121	O=S(=O)(CC(O)(CBr)c1cccc(F)c1)c1ccccc1Cl (stereo not given)
